System: MAb 2G12 binding to HIV-1IIIB gp120
Assay: Competitive ELISA: inhibition of 2G12 binding to immobilized gp120 by carbohydrate antigens
Parameters: species or system human
Details: for Relative Affinity, Molar basis / Relative Affinity, Valency-corrected: Table 1; for Relative Affinity, Molar basis: from IC50, relative to Man9GlcNAc2Asn = 1.0; for Relative Affinity, Valency-corrected: from IC50, relative to Man9GlcNAc2Asn = 1.0, per oligosaccharide subunit; for affinity for 2G12 binding, Man9GlcNAc compared with Man9GlcNAc2Asn: result in words
Protocol: Competitive ELISAs were performed to determine the relative inhibition potency of various carbohydrate antigens against the binding of 2G12 to gp120. Microtiter plates were coated with human cell line 293-expressed HIV-1IIIB gp120 (100 ng/ml) overnight at 4° C. After washing, non-specific binding was blocked with 5% BSA in PBS for 1 h at room temperature. The plates were then washed three times with 0.1% Tween-20/PBS. Serial dilutions (1:2) of various carbohydrate antigens were mixed with an equal volume of MAb 2G12 (fixed final concentration of 5 ng/ml) and added to the plates. The plates were incubated for 1 h at 37° C. and washed with washing buffer. To the plates was added a 100-μl solution of 1:3000 diluted horseradish peroxidase-conjugated goat anti-human IgG in 0.5% BSA/PBS. After incubation for 1 h at 37° C., the plates were washed again and a 100-μl solution of 3,3′,5,5′-tetramethyl benzidine (TMB) was added. Color was allowed to develop for 5 min, and the color reaction was quenched through adding a 100-μl solution of 0.5 M H2SO4 to each well. The optical density was then measured at 450 nm.
The binding affinity of the high-mannose oligosaccharides was examined by competitive inhibition of 2G12 binding to immobilized gp120, as shown in FIG. 14.
The synthetic Man9-clusters were examined for competitive inhibition of 2G12 binding to immobilized gp120 (FIG. 16).

Molecule	Relative Affinity, Molar basis	Relative Affinity, Valency-corrected	affinity for 2G12 binding, Man9GlcNAc compared with Man9GlcNAc2Asn	fold more effective in inhibition of 2G12 binding than Man5GlcNAc (on a molar basis, versus Man5GlcNAc)	fold more effective in inhibition of 2G12 binding than Man6GlcNAc (on a molar basis, versus Man6GlcNAc)
CC(=O)N[C@H]1C(O)O[C@H](CO)[C@@H](O[C@@H]2O[C@H](CO[C@H]3O[C@H](CO[C@H]4O[C@H](CO)[C@@H](O)[C@H](O)[C@@H]4O)[C@@H](O)[C@H](O[C@H]4O[C@H](CO)[C@@H](O)[C@H](O)[C@@H]4O)[C@@H]3O)[C@@H](O)[C@H](O[C@H]3O[C@H](CO)[C@@H](O)[C@H](O)[C@@H]3O)[C@@H]2O)[C@@H]1O (stereo partly drawn) [Man5GlcNAc]	0.004	0.004			
CC(=O)N[C@@H]1[C@@H](O)[C@H](O[C@@H]2O[C@H](CO)[C@@H](O[C@@H]3O[C@H](CO[C@H]4O[C@H](CO[C@H]5O[C@H](CO)[C@@H](O)[C@H](O)[C@@H]5O[C@H]5O[C@H](CO)[C@@H](O)[C@H](O)[C@@H]5O)[C@@H](O)[C@H](O[C@H]5O[C@H](CO)[C@@H](O)[C@H](O)[C@@H]5O[C@H]5O[C@H](CO)[C@@H](O)[C@H](O)[C@@H]5O)[C@@H]4O)[C@@H](O)[C@H](O[C@H]4O[C@H](CO)[C@@H](O)[C@H](O)[C@@H]4O[C@H]4O[C@H](CO)[C@@H](O)[C@H](O)[C@@H]4O[C@H]4O[C@H](CO)[C@@H](O)[C@H](O)[C@@H]4O)[C@@H]3O)[C@H](O)[C@H]2NC(C)=O)[C@@H](CO)O[C@H]1NC(=O)C[C@H](N)C(=O)O [Man9GlcNAc2Asn]	1.0	1.0	essentially the same affinity		
CC(=O)N[C@H]1C(O)O[C@H](CO)[C@@H](O[C@@H]2O[C@H](CO[C@H]3O[C@H](CO[C@H]4O[C@H](CO)[C@@H](O)[C@H](O)[C@@H]4O[C@H]4O[C@H](CO)[C@@H](O)[C@H](O)[C@@H]4O)[C@@H](O)[C@H](O[C@H]4O[C@H](CO)[C@@H](O)[C@H](O)[C@@H]4O[C@H]4O[C@H](CO)[C@@H](O)[C@H](O)[C@@H]4O)[C@@H]3O)[C@@H](O)[C@H](O[C@H]3O[C@H](CO)[C@@H](O)[C@H](O)[C@@H]3O[C@H]3O[C@H](CO)[C@@H](O)[C@H](O)[C@@H]3O[C@H]3O[C@H](CO)[C@@H](O)[C@H](O)[C@@H]3O)[C@@H]2O)[C@@H]1O (stereo partly drawn) [Man9GlcNAc]	0.84	0.84	essentially the same affinity	244 fold	85 fold
Man6GlcNAc	0.012	0.012			
